Patent publication US4965280A, “Antifungal carbinols” (E. I. Du Pont de Nemours and Company, priority 1989, dated 1990)

Legend:
GIANT FOXTAIL = assay: Test D; assay type: in vivo, Setaria faberii
WILLMS SOYBEANS = assay: Test D; assay type: in vivo, Glycine max
REDROOT PIGWEED = assay: Test D; assay type: in vivo, Amaranthus retroflexus
GREEN FOXTAIL = assay: Test D; assay type: in vivo, Setaria viridis
VELVETLEAF = assay: Test D; assay type: in vivo, Abutilon theophrasti
Experimental: The Corn and Sorghum Herbicide Test included the following species in both the preemergence and postemergence evaluations:
Postemergence plantings were grown in Sassafras sandy loam soil. Corn and soybeans were grown in separate 25 cm diameter containers. Sorghum and the seven grass weed species were grown in two 18 cm diameter containers, 4 species per container. The seven broadleaf weed species were also grown in two 18 cm diameter containers, 4 species in one container, 3 species in the second container. One additional planting of corn in an 18 cm diameter container was made. The soil surface of this additional container of corn was covered with the absorbent, perlite, before spray treatment so that test chemicals would enter the plant only via the foliage. The plants were grown 10-21 days, dependent upon the species and then sprayed postemergence with the test chemicals dissolved in a nonpytotoxic solvent.
Preemergence plantings were grown in fertilized Tama silt loam soil. These plantings are identical to those described in the postemergence section, with the exception of the corn planting having perlite covering the soil surface. These plantings were made the day of or the day before spraying the test chemicals dissolved in a nonphytotoxic solvent.
Treated plants and controls were maintained in the greenhouse for 2 to 4 weeks. Visual planting response ratings were made on a percentage scale of 0 to 100 in comparison with a control where 0=no injury, and 100=death.

FALL PANICUM = assay: Test D; assay type: in vivo, Panicum dichotomiflorum
PERSN SPEEDWELL = assay: Test E; assay type: in vivo, Veronica persica
JET RAPE = assay: Test E; assay type: in vivo, Brassica napus cv. Jet Neuf
BLACKGRASS = assay: Test E; assay type: in vivo, Alopercurus mysuroides
Description: Seeds of the following crops and weeds are sown into 15 cm pots containing Sassafras sandy loam soil: wheat (Triticum aestivum cv. Park), barley (Hordeum vulgare cv. Bonanza), sugarbeet (Beta vulgaris cv. USH-11), rapeseed (Brassica napus cv. Jet Neuf), black nightshade (Solanum nigrum), chickweed (Stellaria media), lambsquarter (Chenopodium album), Galium aparine, knotweed (Polygonum aviculare), Kochia scoparia, Matricaria indora, redroot pigweed (Amaranthus retroflexus), smartweed (Polygonum persicaria), speedwell (Veronica persica), wild buckwheat (Polygonum convolvulus), wild mustard (Brassica spp.), wild radish (Raphanus raphanistrum), annual bluegrass (PO annua), annual ryegrass (Lolium multiflorum), blackgrass (Alopercurus mysuroides), green foxtail (Setaria viridis), and wild oats (Avena fatua). Compounds are formulated in a nonphytotoxic solvent and applied to the plants as a foliar spray or applied to the soil surface. Plants are treated at two stages: preemergence, or postemergence when the sugarbeets are at the 2-3 true leaf stage. Plants are grown in a temperature-controlled greenhouse for the duration of the test.
Weed control and crop injury are evaluated visually at 3-4 weeks after compound application, using a scale of 0 to 100%, where 0=no injury and 100=complete death of the plant. All plants are rated with respect to untreated plants (checks) grown in the greenhouse under identical conditions to the treated plants.

ANN. BLUEGRASS = assay: Test E; assay type: in vivo, PO annua
BONANZA BARLEY = assay: Test E; assay type: in vivo, Hordeum vulgare cv. Bonanza

Q: For `C=C(c1ccccc1Cl)C(O)(Cn1cncn1)c1ccc(Cl)cc1Cl` (stereo not shown) [Example 33, 2-(2,4-Dichlorophenyl)-3-(2-chlorophenyl)-1-(1H-1,2,4-triazol-1-yl)-3-buten-2-ol], which plant response (GIANT FOXTAIL; POSTEMERGENCE 0250 GM/HA) is on record?
A: 0%

Q: And the plant response (GIANT FOXTAIL; POSTEMERGENCE 0500 GM/HA)?
A: 0%

Q: What about the plant response (GIANT FOXTAIL; POSTEMERGENCE 1000 GM/HA) of the same compound?
A: 0%

Q: What about the plant response (GIANT FOXTAIL; PREEMERGENCE 0250 GM/HA) of the same compound?
A: 0%

Q: And the plant response (GIANT FOXTAIL; PREEMERGENCE 0500 GM/HA)?
A: 0%

Q: And the plant response (GIANT FOXTAIL; PREEMERGENCE 1000 GM/HA)?
A: 0%

Q: And the plant response (WILLMS SOYBEANS; POSTEMERGENCE 0250 GM/HA)?
A: 0%

Q: What about the plant response (WILLMS SOYBEANS; POSTEMERGENCE 0500 GM/HA) of the same compound?
A: 0%

Q: And the plant response (WILLMS SOYBEANS; POSTEMERGENCE 1000 GM/HA)?
A: 0%

Q: And the plant response (WILLMS SOYBEANS; PREEMERGENCE 0250 GM/HA)?
A: 0%

Q: And the plant response (WILLMS SOYBEANS; PREEMERGENCE 0500 GM/HA)?
A: 0%

Q: What about the plant response (WILLMS SOYBEANS; PREEMERGENCE 1000 GM/HA) of the same compound?
A: 0%

Q: What about the plant response (REDROOT PIGWEED; POSTEMERGENCE 0250 GM/HA) of the same compound?
A: 0%

Q: What about the plant response (REDROOT PIGWEED; POSTEMERGENCE 0500 GM/HA) of the same compound?
A: 0%

Q: What about the plant response (REDROOT PIGWEED; POSTEMERGENCE 1000 GM/HA) of the same compound?
A: 0%

Q: And the plant response (REDROOT PIGWEED; PREEMERGENCE 0250 GM/HA)?
A: 0%

Q: What about the plant response (REDROOT PIGWEED; PREEMERGENCE 0500 GM/HA) of the same compound?
A: 0%

Q: What about the plant response (REDROOT PIGWEED; PREEMERGENCE 1000 GM/HA) of the same compound?
A: 0%

Q: What about the plant response (GREEN FOXTAIL; POSTEMERGENCE 0250 GM/HA) of the same compound?
A: 0%

Q: What about the plant response (GREEN FOXTAIL; POSTEMERGENCE 0500 GM/HA) of the same compound?
A: 0%

Q: What about the plant response (GREEN FOXTAIL; POSTEMERGENCE 1000 GM/HA) of the same compound?
A: 0%

Q: And the plant response (GREEN FOXTAIL; PREEMERGENCE 0250 GM/HA)?
A: 0%

Q: And the plant response (GREEN FOXTAIL; PREEMERGENCE 0500 GM/HA)?
A: 0%

Q: What about the plant response (GREEN FOXTAIL; PREEMERGENCE 1000 GM/HA) of the same compound?
A: 0%

Q: And the plant response (VELVETLEAF; POSTEMERGENCE 0250 GM/HA)?
A: 0%

Q: And the plant response (VELVETLEAF; POSTEMERGENCE 0500 GM/HA)?
A: 0%

Q: What about the plant response (VELVETLEAF; POSTEMERGENCE 1000 GM/HA) of the same compound?
A: 0%

Q: What about the plant response (VELVETLEAF; PREEMERGENCE 0250 GM/HA) of the same compound?
A: 0%

Q: And the plant response (VELVETLEAF; PREEMERGENCE 0500 GM/HA)?
A: 0%

Q: And the plant response (VELVETLEAF; PREEMERGENCE 1000 GM/HA)?
A: 0%

Q: What about the plant response (FALL PANICUM; POSTEMERGENCE 0250 GM/HA) of the same compound?
A: 0%

Q: What about the plant response (FALL PANICUM; POSTEMERGENCE 0500 GM/HA) of the same compound?
A: 0%

Q: And the plant response (FALL PANICUM; POSTEMERGENCE 1000 GM/HA)?
A: 0%

Q: And the plant response (FALL PANICUM; PREEMERGENCE 0250 GM/HA)?
A: 0%

Q: And the plant response (FALL PANICUM; PREEMERGENCE 0500 GM/HA)?
A: 0%

Q: And the plant response (FALL PANICUM; PREEMERGENCE 1000 GM/HA)?
A: 0%

Q: For `C=C(c1ccccc1)C(O)(Cn1cncn1)c1ccc(Cl)cc1` (stereo not shown) [Example 51, 2-(4-Chlorophenyl)-3-phenyl-1-(1H-1,2,4-triazol-1-yl)-3-buten-2-ol], which plant response (PERSN SPEEDWELL; POSTEMERGENCE 0064 GM/HA) is on record?
A: 0%

Q: And the plant response (PERSN SPEEDWELL; POSTEMERGENCE 0125 GM/HA)?
A: 0%

Q: What about the plant response (PERSN SPEEDWELL; POSTEMERGENCE 0250 GM/HA) of the same compound?
A: 20%

Q: And the plant response (PERSN SPEEDWELL; POSTEMERGENCE 0500 GM/HA)?
A: 40%

Q: And the plant response (PERSN SPEEDWELL; PREEMERGENCE 0500 GM/HA)?
A: 20%

Q: And the plant response (JET RAPE; POSTEMERGENCE 0064 GM/HA)?
A: 0%

Q: What about the plant response (JET RAPE; POSTEMERGENCE 0125 GM/HA) of the same compound?
A: 0%

Q: What about the plant response (JET RAPE; POSTEMERGENCE 0250 GM/HA) of the same compound?
A: 0%

Q: And the plant response (JET RAPE; POSTEMERGENCE 0500 GM/HA)?
A: 20%

Q: What about the plant response (JET RAPE; PREEMERGENCE 0500 GM/HA) of the same compound?
A: 0%

Q: What about the plant response (BLACKGRASS; POSTEMERGENCE 0064 GM/HA) of the same compound?
A: 0%

Q: What about the plant response (BLACKGRASS; POSTEMERGENCE 0125 GM/HA) of the same compound?
A: 0%

Q: And the plant response (BLACKGRASS; POSTEMERGENCE 0250 GM/HA)?
A: 0%

Q: And the plant response (BLACKGRASS; POSTEMERGENCE 0500 GM/HA)?
A: 0%

Q: And the plant response (BLACKGRASS; PREEMERGENCE 0500 GM/HA)?
A: 0%

Q: And the plant response (ANN. BLUEGRASS; POSTEMERGENCE 0064 GM/HA)?
A: 0%

Q: What about the plant response (ANN. BLUEGRASS; POSTEMERGENCE 0125 GM/HA) of the same compound?
A: 0%

Q: What about the plant response (ANN. BLUEGRASS; POSTEMERGENCE 0250 GM/HA) of the same compound?
A: 20%

Q: What about the plant response (ANN. BLUEGRASS; POSTEMERGENCE 0500 GM/HA) of the same compound?
A: 50%

Q: What about the plant response (ANN. BLUEGRASS; PREEMERGENCE 0500 GM/HA) of the same compound?
A: 20%

Q: What about the plant response (BONANZA BARLEY; POSTEMERGENCE 0064 GM/HA) of the same compound?
A: 0%

Q: What about the plant response (BONANZA BARLEY; POSTEMERGENCE 0125 GM/HA) of the same compound?
A: 0%

Q: And the plant response (BONANZA BARLEY; POSTEMERGENCE 0250 GM/HA)?
A: 0%

Q: And the plant response (BONANZA BARLEY; POSTEMERGENCE 0500 GM/HA)?
A: 0%

Q: And the plant response (BONANZA BARLEY; PREEMERGENCE 0500 GM/HA)?
A: 30%
